# Laboratory results from patent publication US11051515B2, “3-acyl-benzamides and their use as herbicides” (Bayer Aktiengesellschaft, priority 2017, dated 2021).
# What was measured:
# AVEFA [1] = test: Pre-emergence action against AVEFA; type: in vivo, Avena fatua; details: dosage 320 g/ha, scored visually after 3 weeks vs untreated controls
# In short: (§1)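 Seeds sown in sandy loam in wood-fiber pots and covered with soil. Greenhouse growth; visual damage scored after 3 weeks versus untreated controls (100% = dead, 0% = like control).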
# AMARE [2] = test: Pre-emergence action against AMARE; type: in vivo, Amaranthus retroflexus; details: pre-emergence, dosage 320 g/ha, scored visually after 3 weeks vs untreated controls
# In short: as §1
# VERPE [3] = test: Post-emergence action against VERPE; type: in vivo, Veronica persica; details: dosage 80 g/ha
# In short: (§2)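 Post-emergence foliar spray on greenhouse plants at the one-leaf stage, using wettable-powder or emulsion-concentrate formulations in water (600 to […], plus 0.2% wetting agent). Damage scored by eye roughly 3 weeks later against untreated plants: 0% = like control, 100% = dead.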
# VIOTR [4] = test: Post-emergence action against VIOTR; type: in vivo, Viola tricolor; details: post-emergence, dosage 80 g/ha
# In short: as §2
# SETVI [5] = test: Pre-emergence action against SETVI; type: in vivo, Setaria viridis; details: pre-emergence, dosage 320 g/ha, scored visually after 3 weeks vs untreated controls
# In short: as §1
# STEME [6] = test: Pre-emergence action against STEME; type: in vivo, Stellaria media; details: Dosage 320 g/ha, pre-emergence
# In short: as §1
# PHBPU [7] = test: Post-emergence action against PHBPU; type: in vivo, Pharbitis purpurea; details: post-emergence, dosage 80 g/ha
# In short: as §2
# ALOMY [8] = test: Post-emergence action against ALOMY; type: in vivo, Alopecurus myosuroides; details: Dosage 80 g/ha, post-emergence
# Protocol: (§3) Seeds of monocotyledonous and dicotyledonous weed and crop plants are laid out in sandy loam soil in wood-fiber pots, covered with soil and cultivated in a greenhouse under good growth conditions. 2 to 3 weeks after sowing, the test plants are treated at the one-leaf stage. The compounds of the invention, formulated in the form of wettable powders (WP) or as emulsion concentrates (EC), are then sprayed onto the green parts of the plants in the form of an aqueous suspension or emulsion at a water application rate equating to […], with addition of 0.2% wetting agent. After the test plants have been left to stand in the greenhouse under optimal growth conditions for about 3 weeks, the action of the preparations is assessed visually in comparison to untreated controls (herbicidal action in percent (%): 100% activity=the plants have died, 0% activity=like control plants). […] At the same time, inventive compounds leave Gramineae crops such as barley, wheat, rye, millet/Sorghum, corn or rice virtually undamaged when applied post-emergence, even at high active ingredient dosages. In addition, some substances are also harmless to dicotyledonous crops such as soya, cotton, oilseed rape, sugar beet or potatoes. Some of the compounds according to the invention have high selectivity and are therefore suitable for controlling unwanted vegetation in agricultural crops by the post-emergence method. The data of Tables B18 to B34 below illustrate, in an exemplary manner, the […] herbicidal action of the compounds according to the invention, the herbicidal activity being stated in percent.
# VERPE [9] = test: Pre-emergence action against VERPE; type: in vivo, Veronica persica; details: Dosage 320 g/ha, pre-emergence
# In short: as §1
# VIOTR [10] = test: Pre-emergence action against VIOTR; type: in vivo, Viola tricolor; details: Dosage 320 g/ha, pre-emergence
# In short: as §1
# ECHCG [11] = test: Pre-emergence action against ECHCG; type: in vivo, Echinochloa crus-galli; details: pre-emergence, dosage 320 g/ha, scored visually after 3 weeks vs untreated controls
# In short: as §1
# AVEFA [12] = test: Post-emergence action against AVEFA; type: in vivo, Avena fatua; details: post-emergence, dosage 80 g/ha, visual assessment about 3 weeks after treatment vs untreated controls
# Protocol: as §3
# SETVI [13] = test: Post-emergence action against SETVI; type: in vivo, Setaria viridis; details: post-emergence, dosage 80 g/ha, visual assessment about 3 weeks after treatment vs untreated controls
# In short: as §2
# ABUTH [14] = test: Post-emergence action against ABUTH; type: in vivo, Abutilon theophrasti; details: post-emergence, dosage 80 g/ha, visual assessment about 3 weeks after treatment vs untreated controls
# In short: as §2
# ABUTH [15] = test: Pre-emergence action against ABUTH; type: in vivo, Abutilon theophrasti; details: pre-emergence, dosage 320 g/ha, scored visually after 3 weeks vs untreated controls
# In short: as §1
# STEME [16] = test: Post-emergence action against STEME; type: in vivo, Stellaria media; details: post-emergence, dosage 80 g/ha
# In short: as §2
# MATIN [17] = test: Pre-emergence action against MATIN; type: in vivo, Matricaria inodora; details: Dosage 320 g/ha, pre-emergence
# In short: as §1
# MATIN [18] = test: Post-emergence action against MATIN; type: in vivo, Matricaria inodora; details: post-emergence, dosage 80 g/ha, visual assessment about 3 weeks after treatment vs untreated controls
# In short: as §2
# AMARE [19] = test: Post-emergence action against AMARE; type: in vivo, Amaranthus retroflexus; details: post-emergence, dosage 80 g/ha, visual assessment about 3 weeks after treatment vs untreated controls
# In short: as §2
# ALOMY [20] = test: Pre-emergence action against ALOMY; type: in vivo, Alopecurus myosuroides; details: dosage 320 g/ha, pre-emergence, scored visually after 3 weeks vs untreated controls, 100% = plants have died, 0% = like control plants
# In short: as §1
# ECHCG [21] = test: Post-emergence action against ECHCG; type: in vivo, Echinochloa crus-galli; details: post-emergence, dosage 80 g/ha, visual assessment about 3 weeks after treatment vs untreated controls
# In short: as §2
# CYPES [22] = test: Pre-emergence action against CYPES; type: in vivo, Cyperus esculentus; details: pre-emergence, dosage 320 g/ha, scored visually after 3 weeks vs untreated controls
# In short: as §1
# POLCO [23] = test: Post-emergence action against POLCO; type: in vivo, Polygonum convolvulus; details: post-emergence, dosage 80 g/ha
# In short: as §2
# POLCO [24] = test: Pre-emergence action against POLCO; type: in vivo, Polygonum convolvulus; details: Dosage 320 g/ha, pre-emergence
# In short: as §1
# CYPES [25] = test: Post-emergence action against CYPES; type: in vivo, Cyperus esculentus; details: post-emergence, dosage 80 g/ha, visual assessment about 3 weeks after treatment vs untreated controls
# In short: as §2
# PHBPU [26] = test: Pre-emergence action against PHBPU; type: in vivo, Pharbitis purpurea; details: Dosage 320 g/ha, pre-emergence
# In short: as §1
structure (smiles),measurement,setting,value
CSc1ccc(C(=O)Nc2nnnn2C)c(Cl)c1C(=O)C1CC1 [1-123],pest or weed control at 320 g/ha,"AVEFA [1]; Avena fatua, 504 h, read-out: Pre-emergence action against AVEFA (herbicidal activity)",80%
same,pest or weed control at 320 g/ha,"AMARE [2]; Amaranthus retroflexus, 504 h, read-out: Pre-emergence action against AMARE (herbicidal activity)",100%
same,pest or weed control at 80 g/ha,"VERPE [3]; Veronica persica, 504 h",100%
same,pest or weed control at 80 g/ha,"VIOTR [4]; Viola tricolor, 504 h",100%
same,pest or weed control at 320 g/ha,"SETVI [5]; Setaria viridis, 504 h, read-out: SETVI (Table B8, pre-emergence herbicidal activity)",100%
same,pest or weed control at 320 g/ha,"STEME [6]; Stellaria media, 504 h",90%
same,pest or weed control at 80 g/ha,"PHBPU [7]; Ipomoea purpurea, 504 h",90%
same,pest or weed control at 80 g/ha,"ALOMY [8]; Alopecurus myosuroides, 504 h",80%
same,pest or weed control at 320 g/ha,"VERPE [9]; Veronica persica, 504 h",100%
same,pest or weed control at 320 g/ha,"VIOTR [10]; Viola tricolor, 504 h",100%
same,pest or weed control at 320 g/ha,"ECHCG [11]; Echinochloa crus-galli, 504 h, read-out: Pre-emergence action against ECHCG (herbicidal activity)",100%
same,pest or weed control at 80 g/ha,"AVEFA [12]; Avena fatua, 504 h, read-out: Post-emergence action against AVEFA (herbicidal action in percent)",100%
same,pest or weed control at 80 g/ha,"SETVI [13]; Setaria viridis, 504 h, read-out: Post-emergence action against SETVI (herbicidal action in percent)",100%
same,pest or weed control at 80 g/ha,"ABUTH [14]; Abutilon theophrasti, 504 h, read-out: Post-emergence action against ABUTH (herbicidal action in percent)",100%
same,pest or weed control at 320 g/ha,"ABUTH [15]; Abutilon theophrasti, 504 h, read-out: Pre-emergence action against ABUTH (herbicidal activity)",90%
same,pest or weed control at 80 g/ha,"STEME [16]; Stellaria media, 504 h",100%
same,pest or weed control at 320 g/ha,"MATIN [17]; Tripleurospermum inodorum, 504 h",100%
same,pest or weed control at 80 g/ha,"MATIN [18]; Tripleurospermum inodorum, 504 h, read-out: Post-emergence action against MATIN (herbicidal action in percent)",100%
same,pest or weed control at 80 g/ha,"AMARE [19]; Amaranthus retroflexus, 504 h, read-out: Post-emergence action against AMARE (herbicidal action in percent)",100%
same,pest or weed control at 320 g/ha,"ALOMY [20]; Alopecurus myosuroides, 504 h, read-out: Pre-emergence action against ALOMY (herbicidal activity in percent)",90%
same,pest or weed control at 80 g/ha,"ECHCG [21]; Echinochloa crus-galli, 504 h, read-out: Post-emergence action against ECHCG (herbicidal action in percent)",100%
CCn1nnnc1NC(=O)c1ccc(C(F)(F)F)c(C(=O)CCl)c1Cl [2-145],Pre-emergence action against AMARE (herbicidal activity),AMARE [2],100%
same,Pre-emergence action against CYPES (herbicidal activity),CYPES [22],100%
same,Post-emergence action against VIOTR,VIOTR [4],100
same,"SETVI (Table B8, pre-emergence herbicidal activity)",SETVI [5],100%
same,Pre-emergence action against STEME,STEME [6],100%
same,Post-emergence action against PHBPU,PHBPU [7],100
same,Post-emergence action against ALOMY,ALOMY [8],80%
same,Pre-emergence action against VERPE,VERPE [9],100%
same,Post-emergence action against POLCO,POLCO [23],80
same,Pre-emergence action against VIOTR,VIOTR [10],100%
same,Pre-emergence action against ECHCG (herbicidal activity),ECHCG [11],90%
same,Post-emergence action against SETVI (herbicidal action in percent),SETVI [13],100%
same,Post-emergence action against ABUTH (herbicidal action in percent),ABUTH [14],100%
same,Pre-emergence action against ABUTH (herbicidal activity),ABUTH [15],100%
same,Post-emergence action against STEME,STEME [16],100
same,Pre-emergence action against MATIN,MATIN [17],100%
same,Post-emergence action against AMARE (herbicidal action in percent),AMARE [19],100%
same,Pre-emergence action against POLCO,POLCO [24],90%
same,Post-emergence action against ECHCG (herbicidal action in percent),ECHCG [21],100%
CCCn1nnnc1NC(=O)c1ccc(S(C)(=O)=O)c(C(C)=O)c1C [3-7],Post-emergence action against CYPES (herbicidal action in percent),CYPES [25],80%
same,Pre-emergence action against AVEFA (herbicidal activity),AVEFA [1],90%
same,Pre-emergence action against AMARE (herbicidal activity),AMARE [2],100%
same,Pre-emergence action against CYPES (herbicidal activity),CYPES [22],100%
same,Post-emergence action against VERPE,VERPE [3],100
same,Post-emergence action against VIOTR,VIOTR [4],100
same,"SETVI (Table B8, pre-emergence herbicidal activity)",SETVI [5],100%
same,Pre-emergence action against STEME,STEME [6],90%
same,Post-emergence action against PHBPU,PHBPU [7],90
same,Pre-emergence action against VERPE,VERPE [9],100%
same,Post-emergence action against POLCO,POLCO [23],80
same,Pre-emergence action against VIOTR,VIOTR [10],100%
same,Pre-emergence action against ECHCG (herbicidal activity),ECHCG [11],100%
same,Pre-emergence action against PHBPU,PHBPU [26],90%
same,Post-emergence action against AVEFA (herbicidal action in percent),AVEFA [12],100%
same,Post-emergence action against SETVI (herbicidal action in percent),SETVI [13],100%
same,Post-emergence action against ABUTH (herbicidal action in percent),ABUTH [14],100%
same,Pre-emergence action against ABUTH (herbicidal activity),ABUTH [15],100%
same,Post-emergence action against STEME,STEME [16],100
same,Pre-emergence action against MATIN,MATIN [17],100%
same,Post-emergence action against MATIN (herbicidal action in percent),MATIN [18],100%
same,Post-emergence action against AMARE (herbicidal action in percent),AMARE [19],100%
same,Pre-emergence action against ALOMY (herbicidal activity in percent),ALOMY [20],80%
same,Pre-emergence action against POLCO,POLCO [24],90%
same,Post-emergence action against ECHCG (herbicidal action in percent),ECHCG [21],100%
